Our source for the IC50 values is patent US20250346599A1, “TRICYCLIC PHTHALAZINONE PARP INHIBITORS AND METHODS OF USE” (Valo Health, Inc., priority 2022, published 2025).

Several values for one entry are separate records, joined by “and”; a condition that tells them apart may be missing. Equal entries are not always repeated.

The target in this assay is PARP1 enzyme (Homo sapiens (Human), UniProt P09874). Put plainly: PARP Mass Spectroscopy Assay (PARP1 enzymatic assay, nicotinamide detection). Format: biochemical. Conditions: 5 nM PARP1, 5 uM β-NAD, 60 min at RT, NAM by mass spectrometry. The source says: Materials and Reagents: The PARP1 enzyme was purchased from BPS Bioscience (cat #80501). Tris-HCl, pH 8.0 was purchased from Corning (cat #46-031-CM). Magnesium chloride was purchased from Thermo Fisher Scientific (previously Honeywell Fluka, cat #63020-1L). All other assay components, activated DNA (cat #D4522), core histones (cat #SRP6590), β-Nicotinamide adenine dinucleotide (β-NAD—cat #N8285), 3ABA PARP1 small molecule inhibitor (from the PARP1 Enzyme Activity Assay kit, cat #17-10149), Sodium Chloride (NaCl, cat #56546-1L), Triton X-100 (cat #93443), Dithiothreitol (DTT, cat #43816-250 ML) were all purchased from Millipore Sigma.
PARP1 enzyme, sequence (P09874 whole entry): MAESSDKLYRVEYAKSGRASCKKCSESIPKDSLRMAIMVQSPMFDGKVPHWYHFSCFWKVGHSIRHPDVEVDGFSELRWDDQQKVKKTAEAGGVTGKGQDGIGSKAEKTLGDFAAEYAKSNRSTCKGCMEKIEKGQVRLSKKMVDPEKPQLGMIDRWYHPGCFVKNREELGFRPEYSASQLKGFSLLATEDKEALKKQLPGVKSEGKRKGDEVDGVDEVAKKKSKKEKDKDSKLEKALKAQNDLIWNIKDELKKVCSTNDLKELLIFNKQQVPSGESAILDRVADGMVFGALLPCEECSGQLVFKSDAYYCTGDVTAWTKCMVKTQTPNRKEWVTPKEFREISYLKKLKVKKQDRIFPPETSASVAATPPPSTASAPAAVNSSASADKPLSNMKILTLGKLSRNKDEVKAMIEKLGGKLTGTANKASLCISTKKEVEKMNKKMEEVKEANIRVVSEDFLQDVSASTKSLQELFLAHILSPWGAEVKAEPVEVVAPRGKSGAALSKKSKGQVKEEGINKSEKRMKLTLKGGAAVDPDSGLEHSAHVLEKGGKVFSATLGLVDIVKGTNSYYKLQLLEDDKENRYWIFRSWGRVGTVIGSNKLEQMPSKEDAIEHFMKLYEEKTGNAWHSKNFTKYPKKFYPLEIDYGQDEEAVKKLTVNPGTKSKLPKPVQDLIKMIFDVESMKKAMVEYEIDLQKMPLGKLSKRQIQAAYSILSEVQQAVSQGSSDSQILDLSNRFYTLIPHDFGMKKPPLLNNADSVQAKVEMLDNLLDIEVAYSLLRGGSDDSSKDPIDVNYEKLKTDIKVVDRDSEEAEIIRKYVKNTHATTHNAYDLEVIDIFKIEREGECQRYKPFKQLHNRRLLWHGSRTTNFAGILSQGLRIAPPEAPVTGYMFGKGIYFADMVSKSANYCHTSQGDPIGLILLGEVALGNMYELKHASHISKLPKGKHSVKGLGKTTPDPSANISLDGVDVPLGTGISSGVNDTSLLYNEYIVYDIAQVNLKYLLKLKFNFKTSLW
Assay Buffer: The assay buffer includes the following reagents: 50 mM Tris-HCl pH 8.0, 50 mM NaCl, 10 mM, MgCl2, 0.01% Triton X-100, and 1 mM DTT.
PARP1 enzymatic assays were performed in 384-well plates in a total volume of 20 μL in the assay buffer. For concentration response curves, compounds were serially diluted 3-fold from 2 mM highest concentration […] to generate a 10-point curve, and 125 nL was transferred to the assay plate using the Echo acoustic dispenser for a final concentration range of 26.6 μM to […] in 10 μL reaction. Five microliters of 10 nM PARP1 enzyme and 100 nM core histones (2×) mix were added to the assay plates and pre-incubated for 30 mins at room temperature (RT). The reaction was initiated by the addition of a 5 μL of 10 uM β-NAD plus 0.02 mg/mL activated DNA (2×) mix. The reaction is incubated for 60 min at RT. The final concentration of the PARP1 enzyme and substrate concentrations were 5 nM and 5 uM, respectively. The positive control (high signal) and negative control (low signal) wells had 125 nL of DMSO in place of compounds. After the incubation is complete, the reaction is stopped by the addition of 10 μL of 10 uM of the 3ABA PARP1 inhibitor, incubated for 5 min at RT, and placed in the −80 C freezer for shipment to the Valo Health site in Branford Connecticut where mass spectrometry will be used to directly detect quantities of nicotinamide (NAM).
The percent inhibition of enzyme activity was calculated according to the following equation: […]
The values of Ssample, Shigh, and Slow in the equation refer to the NAM concentration detected in the assay wells, high control wells, and low control wells, respectively. To determine inhibitor IC50 values, % inhibition of the CRCs (concentration response curves) was fitted to the standard single-site four-parameter logistic equation.
`O=c1[nH]nc2c3c(cc(F)cc13)N[C@@H](C1CCN(C3CCC(F)(F)CC3)CC1)[C@@H]2c1ccc(F)cc1F` [Compound 0271B] gave an IC50 of 7 nM.

For the compound `CC(C)[C@H]1Nc2cc(F)cc3c(=O)[nH]nc(c23)[C@@H]1c1c(F)cc(F)cc1F` [Compound 0221A], the IC50 came out at 2 nM.

Turning to `CN1CCC([C@H]2Nc3cc(F)cc4c(=O)[nH]nc(c34)[C@@H]2c2ccc(F)cc2F)CC1` [Compound 0110A, (8R,9R)-9-(2,4-difluorophenyl)-5-fluoro-8-(1-methylpiperidin-4-yl)-2,7,8,9-tetrahydro-3H-pyrido[4,3,2-de]phthalazin-3-one], 1400 nM corresponded to half-maximal inhibition (IC50).

As to `COCCN1CCC(C2Nc3cc(F)cc4c(=O)[nH]nc(c34)C2c2ccc(F)cc2F)C1` (centres unmarked) [Compound 0111-6, 12-(2,4-difluorophenyl)-7-fluoro-11-[1-(2-methoxyethyl)pyrrolidin-3-yl]-2,3,10-triazatricyclo[7.3.1.0^{5,13}]trideca-1,5(13),6,8-tetraen-4-one], the half-inhibitory concentration (IC50) worked out at 164 nM.

`C[C@@H]1Nc2cc(F)cc3c(=O)[nH]nc(c23)[C@H]1c1ccc(C#N)cc1F` [Compound 0194B] gave an IC50 of 35 nM.

For `CN1CCCC[C@@H]1[C@@H]1CNc2cc(F)cc3c(=O)[nH]nc1c23` [Compound 0192A], the 50% inhibitory concentration (IC50) turned out to be 27 nM.

`CC[C@H]1Nc2cc(F)cc3c(=O)[nH]nc(c23)[C@@H]1c1ccccc1Cl` [Compound 0206B, (11R,12R)-12-(2-chlorophenyl)-11-ethyl-7-fluoro-2,3,10-triazatricyclo[7.3.1.0^{5,13}]trideca-1,5(13),6,8-tetraen-4-one] gave an IC50 of 6 nM.

`O=c1[nH]nc2c3c(cc(F)cc13)N[C@@H](CF)[C@@H]2c1ccc(Cl)cc1F` [Compound 0252A] registered a half-maximal inhibitory concentration (IC50) of 57 nM.

`N#Cc1ccc([C@@H]2CNc3cc(F)cc4c(=O)[nH]nc2c34)cc1F` [Compound 0186A] showed a 50% inhibitory concentration (IC50) of 243 nM.

Take `CC(C)[C@H]1Nc2cc(F)cc3c(=O)[nH]nc(c23)[C@@H]1c1ccccc1Cl` [Compound 0222A]: half-maximal inhibition (IC50) was put at 23 nM.

`N#Cc1ccc([C@H]2c3n[nH]c(=O)c4cc(F)cc(c34)N[C@@H]2C2CCN(C3CCC(F)(F)CC3)CC2)c(F)c1` [Compound 0276B]: the IC50 was 30 nM.

`O=c1[nH]nc2c3c(cc(F)cc13)N[C@@H](C1(F)CC1)[C@@H]2c1ccc(Cl)cc1F` [Compound 0255A] came in with an IC50 of 4 nM.

`C[C@@H]1Nc2cc(F)cc3c(=O)[nH]nc(c23)[C@H]1[C@H]1CCCN(C)C1` [Compound 0198C] yielded a 50% inhibitory concentration (IC50) of 45 nM.

As to `CC1Nc2cc(F)cc3c(=O)[nH]nc(c23)C1c1ccc(Cl)cc1F` (centres unmarked) [Compound 0196-5], half-maximal inhibition (IC50) was put at 9 nM.

For the compound `O=c1[nH]nc2c3c(cc(F)cc13)NC(C1(F)CC1)C2c1ccc(Cl)cc1F` (centres unmarked) [Compound 0255-6], the concentration for half-maximal inhibition (IC50) worked out at 4 nM.

On to `C[C@H]1Nc2cc(F)cc3c(=O)[nH]nc(c23)[C@@H]1[C@@H]1CCCN(C)C1` [Compound 0198D], for which the half-maximal inhibitory concentration (IC50) stood at 42 nM.

As to `C[C@@H]1Nc2cc(F)cc3c(=O)[nH]nc(c23)[C@H]1[C@@H]1CCCCN1C` [Compound 0199D], the IC50 was determined as 25 nM.

In turn, `O=c1[nH]nc2c3c(cc(F)cc13)NC[C@H]2c1ccc(Cl)cc1F` [Compound 0189A] returned an IC50 of 79 nM.

In turn, `CN1CCC[C@H]([C@@H]2CNc3cc(F)cc4c(=O)[nH]nc2c34)C1` [Compound 0191C] showed an IC50 of 50 nM.

For the compound `CN1CCC[C@@H]([C@H]2CNc3cc(F)cc4c(=O)[nH]nc2c34)C1` [Compound 0191D], the IC50 was 35 nM.

As for `CC1Nc2cc(F)cc3c(=O)[nH]nc(c23)C1C1CCCN(C)C1` (centres unmarked) [Compound 0198-5], the midpoint of inhibition, the IC50, lay at 244 nM.

`O=c1[nH]nc2c3c(cc(F)cc13)N[C@@H](C1CCN(C3CCC(F)(F)CC3)CC1)[C@@H]2c1ccc(F)cc1F` [Compound 0271A] returned an IC50 of 936 nM.

Regarding `O=c1[nH]nc2c3c(cc(F)cc13)NC(C1CCNC1)C2c1ccc(F)cc1F` (centres unmarked) [Compound 0173A, 12-(2,4-difluorophenyl)-7-fluoro-11-(pyrrolidin-3-yl)-2,3,10-triazatricyclo[7.3.1.0^{5,13}]trideca-1,5(13),6,8-tetraen-4-one], the IC50 amounted to 70 nM.

In turn, `COCCN1CCC(C2Nc3cc(F)cc4c(=O)[nH]nc(c34)C2c2ccccc2Cl)C1` (centres unmarked) [Compound 0117-8, 12-(2-chlorophenyl)-7-fluoro-11-[1-(2-methoxyethyl)pyrrolidin-3-yl]-2,3,10-triazatricyclo[7.3.1.0^{5,13}]trideca-1,5(13),6,8-tetraen-4-one] registered an IC50 of 566 nM.

For the compound `O=c1[nH]nc2c3c(cc(F)cc13)NC[C@H]2c1ccc(F)cc1F` [Compound 0114A, (R)-9-(2,4-difluorophenyl)-5-fluoro-2,7,8,9-tetrahydro-3H-pyrido[4,3,2-de]phthalazin-3-one], the concentration for half-maximal inhibition (IC50) was 270 nM.

As to `C[C@H]1Nc2cc(F)cc3c(=O)[nH]nc(c23)[C@@H]1[C@H]1CCCCN1C` [Compound 0199A], the concentration for half-maximal inhibition (IC50) was found to be 65 nM.

`O=c1[nH]nc2c3c(cc(F)cc13)N[C@H](C1(F)CC1)[C@H]2c1ccccc1Cl` [Compound 0260A] had an IC50 of 2 nM.

In the case of `N#Cc1ccc(C2c3n[nH]c(=O)c4cc(F)cc(c34)NC2c2c(F)cc(F)cc2F)cc1F` (centres unmarked) [0092A; 0092B, 2-fluoro-4-(5-fluoro-3-oxo-8-(2,4,6-trifluorophenyl)-2,7,8,9-tetrahydro-3H-pyrido[4,3,2-de]phthalazin-9-yl)benzonitrile], the IC50 was 13 nM.

The compound `CN1CCC([C@H]2Nc3cc(F)cc4c(=O)[nH]nc(c34)[C@@H]2c2ccccc2Cl)CC1` [Compound 0116A, (8R,9R)-9-(2-chlorophenyl)-5-fluoro-8-(1-methylpiperidin-4-yl)-2,7,8,9-tetrahydro-3H-pyrido[4,3,2-de]phthalazin-3-one] registered an IC50 of 5280 nM.

In turn, `O=c1[nH]nc2c3c(cc(F)cc13)NC(COCc1ccccc1)C2c1ccc(F)cc1F` (centres unmarked) [Compound 0267-4] had an IC50 of 13 nM.

`O=c1[nH]nc2c3c(cc(F)cc13)N[C@H](C1CCC(F)(F)CC1)[C@H]2c1ccccc1Cl` [Compound 0213A] had a half-inhibitory concentration (IC50) of 352 nM.

With `O=c1[nH]nc2c3c(cc(F)cc13)N[C@H](C1CCN(C3CCC(F)(F)CC3)CC1)[C@H]2c1ccccc1Cl` [Compound 0261A], half-maximal inhibition (IC50) was put at 896 nM.

In turn, `C[C@H]1Nc2cc(F)cc3c(=O)[nH]nc(c23)[C@H]1[C@@H]1CCCN(C)C1` [Compound 0198B] yielded an IC50 of 39 nM.

`N#Cc1ccc([C@H]2CNc3cc(F)cc4c(=O)[nH]nc2c34)cc1F` [Compound 0186B] showed an IC50 of 41 nM.

`C[C@H]1Nc2cc(F)cc3c(=O)[nH]nc(c23)[C@@H]1[C@@H]1CCCCN1C` [Compound 0199B]: half-maximal inhibition (IC50) required 118 nM.

`N#Cc1ccc([C@H]2c3n[nH]c(=O)c4cc(F)cc(c34)N[C@@H]2C2CCN(C3CCC(F)(F)CC3)CC2)c(F)c1` [Compound 0276A] returned a half-maximal inhibitory concentration (IC50) of 281 nM.

In turn, `O=c1[nH]nc2c3c(cc(F)cc13)N[C@H]([C@@H]1CCOC1)[C@H]2c1ccccc1Cl` [Compound 0121B] returned an IC50 of 236 nM.

The compound `O=c1[nH]nc2c3c(cc(F)cc13)NC(C1(F)CC1)[C@H]2c1ccc(Cl)cc1F` (some centres unmarked) [Compound 0255B] came in with an IC50 of 103 nM.

For the compound `O=c1[nH]nc2c3c(cc(F)cc13)NC[C@@H]2c1ccc(Cl)c(F)c1` [Compound 0188B, (S)-9-(4-chloro-3-fluorophenyl)-5-fluoro-2,7,8,9-tetrahydro-3H-pyrido[4,3,2-de]phthalazin-3-one], the IC50 worked out at 99 nM.

The compound `C[C@H]1Nc2cc(F)cc3c(=O)[nH]nc(c23)[C@@H]1C1CCN(C)CC1` [Compound 0197A] showed a half-inhibitory concentration (IC50) of 447 nM.

`O=c1[nH]nc2c3c(cc(F)cc13)NC(C1CCNC1)C2c1ccccc1Cl` (centres unmarked) [Compound 0171, 12-(2-chlorophenyl)-7-fluoro-11-(pyrrolidin-3-yl)-2,3,10-triazatricyclo[7.3.1.0^{5,13}]trideca-1,5(13),6,8-tetraen-4-one] yielded an IC50 of 91 nM.

As for `O=c1[nH]nc2c3c(cc(F)cc13)NC(C1CCC(F)(F)CC1)C2c1c(F)cc(F)cc1F` (centres unmarked) [Compound 0212A], the half-inhibitory concentration (IC50) was 15 nM and 20 nM.

`O=c1[nH]nc2c3c(cc(F)cc13)NC(COCc1ccccc1)C2c1ccccc1Cl` (centres unmarked) [Compound 0257-4]: half-maximal inhibition (IC50) required 593 nM.

`CC(C)(C)C[C@H]1Nc2cc(F)cc3c(=O)[nH]nc(c23)[C@@H]1c1c(F)cc(F)cc1F` [Compound 0219A]: the midpoint of inhibition, the IC50, lay at 512 nM.

A word on the IC50: it is the midpoint of a concentration-inhibition curve. Read a high IC50 as lower potency.
